From patent US4786633A, “Cephalosporin compounds” (Tanabe Seiyaku Co., Ltd., priority 1986, dated 1988)
≈ marks a conversion by molar mass, not a printed value.

Assays:
[1] = test system: Staphylococcus aureus Smith; test: Protective effects on bacterial infections in mice (Staphylococcus aureus Smith); assay type: in vivo; conditions: im, 168 h, intraperitoneal challenge, compound intramuscularly one hour after infection, survival 7 days after infection, probit analysis, read-out: ED50 (median effective dose)
Method: (§1) (Protective effects on bacterial infections in mice) Ten mice weighing 20±1 g were used for each dose level. Mice were challenged via the intraperitoneal route with sufficient bacteria to kill all non-treated mice within 24 hours. All bacteria were suspended in a physiological saline solution containing 6% mucin. A test compound was administered intramuscularly one hour after the infection. Survival ratios were determined 7 days after the infection. The median effective doses (ED50, mg/kg) of the test compound were estimated by the probit analysis.

[2] = test system: Pseudomonas aeruginosa PI-67; test: Protective effects on bacterial infections in mice (Pseudomonas aeruginosa PI-67); assay type: in vivo; conditions: PI67, im, 168 h, intraperitoneal challenge, compound intramuscularly one hour after infection, survival 7 days after infection, probit analysis, read-out: ED50 (median effective dose)
Method: as §1

[3] = test system: Staphylococcus aureus Smith; test: Antimicrobial activity in vitro (MIC, standard agar plate dilution method); assay type: cell-based; conditions: Mueller-Hinton agar, read-out: M.I.C. (minimum inhibitory concentration)
Method: (§2) (Antimicrobial activity in vitro)
(§3) The minimum inhibitory concentration (MIC, μg/ml) of a test compound was determined by means of a standard agar plate dilution method (based on the standard method of Japan Society of Chemotherapy). Media used in the experiment were Mueller-Hinton agar (MHA; product of Nissui).

[4] = test system: Pseudomonas aeruginosa PI-67; test: as above; assay type: cell-based; conditions: PI67, Mueller-Hinton agar, read-out: M.I.C. (minimum inhibitory concentration)
Method: as §2, §3

SMILES	ED50 [1] [mg/kg]	ED50 [2] [mg/kg]	MIC [3] [µg/mL]	MIC [4] [µg/mL]
C[n+]1ccc(SCC2=C(C(=O)[O-])N3C(=O)C(NC(=O)/C(=N\O[C@H]4CCNC4=O)c4csc(N)n4)C3SC2)cc1 (stereo partly drawn) [Test Compound 1, 7β-{(Z)-2-(2-aminothiazol-4-yl)-2-[((3S)-2-oxopyrrolidin-3-yl)oxyimino]acetamido}-3-(1-methyl-4-pyridinio)thiomethyl-3-cephem-4-carboxylate]	0.14	12.3	0.78 (≈ 1.32 µM)	0.78 (≈ 1.32 µM)
C[n+]1ccccc1SCC1=C(C(=O)[O-])N2C(=O)C(NC(=O)/C(=N\O[C@H]3CCNC3=O)c3csc(N)n3)C2SC1 (stereo partly drawn) [Test Compound 2, 7β-{(Z)-2-(2-aminothiazol-4-yl)-2-[((3S)-2-oxopyrrolidin-3-yl)oxyimino]acetamido}-3-(1-methyl-2-pyridinio)thiomethyl-3-cephem-4-carboxylate]	0.25	15.8	0.78 (≈ 1.32 µM)	1.56 (≈ 2.65 µM)
C=CC[n+]1ccccc1SCC1=C(C(=O)[O-])N2C(=O)C(NC(=O)/C(=N\O[C@H]3CCNC3=O)c3csc(N)n3)C2SC1 (stereo partly drawn) [Test Compound 3, 7β-{(Z)-2-(2-aminothiazol-4-yl)-2-[((3S)-2-oxopyrrolidin-3-yl)oxyimino]acetamido}-3-(1-allyl-2-pyridinio)thiomethyl-3-cephem-4-carboxylate]	0.4	10.8	1.56 (≈ 2.53 µM)	3.13 (≈ 5.08 µM)
